From ChEMBL document CHEMBL1154370, “Palmyramide A, a cyclic depsipeptide from a Palmyra Atoll collection of the marine cyanobacterium Lyngbya majuscula” (J Nat Prod, 2010) come the findings set out here.

A short description of assay [1]: Inhibition of voltage-gated sodium channel in mouse Neuro2a cells assessed as suppression of quabain and veratridine-induced sodium overload cytotoxicity after 24 hrs by MTT assay. The class given is cell-based. Conditions: N2a. (In general: Tetrazolium assays rely on reduction of a dye to a coloured formazan, in cell work by metabolically active cells.)
Assay [2] relates to NCI-H460. Kind of assay: Cytotoxicity against human H460 cells after 48 hrs by MTT assay. The class given is functional, cell-based. Conditions: NCI-H460, 48 h.

As a reminder, the IC50 is the point on the concentration scale where inhibition reaches its midpoint. Take `CCC[C@H]1OC(=O)[C@H](C(C)C)NC(=O)[C@@H](C(C)C)N(C)C(=O)[C@@H]2CCCN2C(=O)[C@H](Cc2ccccc2)OC(=O)[C@H](C)OC(=O)C1(C)C` [PALMYRAMIDE A]: the results for the IC50 in assay [1] and in assay [2] were 17.2 µM and 39.7 µM, respectively.
